From patent US20050186659A1, “Methods for protein purification” (priority 2004, published 2005)
Where “and” joins values, the source holds several entries; their conditions need not be identical. Identical values can stand only once.

Columns and labels:
11β-HSD1 [1] = biological target: T1, 11β-HSD1 (Homo sapiens, UniProt P28845); test: Ki values for 11β-HSD1 (stated, no method given); type: biochemical; details: range in words only
Target sequence in this assay (P28845 24-292): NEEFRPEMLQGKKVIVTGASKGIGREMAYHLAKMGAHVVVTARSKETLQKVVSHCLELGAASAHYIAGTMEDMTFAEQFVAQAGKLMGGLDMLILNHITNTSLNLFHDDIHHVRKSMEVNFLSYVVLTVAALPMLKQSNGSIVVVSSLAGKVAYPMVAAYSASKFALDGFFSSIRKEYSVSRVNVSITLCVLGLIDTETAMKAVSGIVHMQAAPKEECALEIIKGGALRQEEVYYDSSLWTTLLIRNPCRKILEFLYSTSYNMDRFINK

guinea pig 11β-HSD1 = biological target: T2, guinea pig 11β-HSD1 (Cavia porcellus, UniProt Q6QLL4); test: GuHCl-induced inactivation (conformational stability) monitored by cortisol dehydrogenation activity; type: biochemical; details: guinea pig enzyme, control (no addition) 0.51
T2 construct: the first 23 amino acid residues (19 for the rat variant) of the protein, which includes the distal N-terminus and the transmembrane domain, were omitted; His6 (N); made in house; host or cells: E. coli BL21(DE3), pET28a derivative, fermentor culture
Procedure: (§1) Stability measurements. The conformational stability was examined by monitoring GuHCl-induced solvent inactivation of 11β-HSD1. Protein solutions (5-10 μM) were incubated overnight at room temperature in various concentrations of GuHCl (0-2 M) buffered with 50 mM Tris-HCl, pH 8.0. The inactivation of the enzyme was monitored by the decrease in dehydrogenase activity (25 μM cortisol, 50 μM NADP^+) using the fluorimetric assay described above. The stability data were analyzed by nonlinear regression, fitting to the equation described by Santoro and Bolen (24) using the program GraFit, version 5.0 (Erithacus Software, Staines, UK). The midpoint concentration of inactivation, Cm, was determined from the ratio, ΔG^H2O/m, of the fitted parameters.

11β-HSD1 [2] = biological target: T1, 11β-HSD1; test: Yield of soluble recombinant 11β-HSD1 expressed in E. coli BL21(DE3), SDS-PAGE of cleared lysate; parameters: the first 23 amino acid residues (19 for the rat variant) of the protein, which includes the distal N-terminus and the transmembrane domain, were omitted; made in house; host or cells: E. coli BL21(DE3), pET28a derivative, co-expression of GroEL/ES; details: GroEL/ES co-overexpression in combination with inhibitor in growth medium; estimated by SDS-PAGE
Description: FIGS. 1A and 1B depict expression of soluble 11β-HSD1 as analyzed by SDS-PAGE. Cleared lysates from induced cultures of BL21(DE3) containing pET28a derivatives for expression of human (FIG. 1A) and rat (FIG. 1B) 11β-HSD1. Lane 1, SeeBlue Plus2 pre-stained protein standard. lane 2, overexpression of 11β-HSD1; lane 3, co-overexpression of 11β-HSD1 and GroEL/ES; lane 4, overexpression of 11β-HSD1 in presence of the inhibitor BVT.24829; lane 5, co-overexpression of 11β-HSD1 and GroEL/ES in presence of BVT.24829.
Two different strategies were employed to optimize production of soluble 11β-HSD1. For expression of the human and rat variant, the cells were grown in shake flasks using Terrific Broth medium supplemented with 50 μg/ml kanamycin and 34 μg/ml chloramphenicol. To increase the yield of soluble human and rat 11β-HSD1, the BL21(DE3) cells were co-transformed with the plasmid pBV530, harboring the genes for the E. coli chaperonin GroEL/ES under control of the araBAD promoter. The cells were then grown at 25° C. to a cell density corresponding to an A600 value of 0.5-1.0. To induce expression of GroEL/ES, arabinose was added to a final concentration of 0.05%. 45-60 minutes after induction of the chaperonin, 0.2 mM isopropyl-β-D-thiogalactoside (IPTG) was added to initiate production of 11β-HSD1. […]
Target sequence in this assay (P28845 with tags, fused parts or gaps): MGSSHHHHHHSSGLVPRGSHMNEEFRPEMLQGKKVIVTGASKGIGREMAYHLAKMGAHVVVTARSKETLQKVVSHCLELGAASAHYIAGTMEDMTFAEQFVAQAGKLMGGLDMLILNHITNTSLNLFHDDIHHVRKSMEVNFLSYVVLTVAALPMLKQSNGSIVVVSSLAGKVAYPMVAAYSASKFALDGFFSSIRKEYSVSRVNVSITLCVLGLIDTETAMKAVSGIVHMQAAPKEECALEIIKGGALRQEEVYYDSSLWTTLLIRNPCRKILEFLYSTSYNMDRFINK

11β-HSD1 [3] = biological target: T1, 11β-HSD1; test: Active site titration, cortisol dehydrogenation by 11β-HSD1 with increasing inhibitor; type: biochemical; parameters: the first 23 amino acid residues (19 for the rat variant) of the protein, which includes the distal N-terminus and the transmembrane domain, were omitted; made in house; host or cells: E. coli BL21(DE3), pET28a derivative, co-expression of GroEL/ES; details: dehydrogenase reaction, 50 μM cortisol, 100 μM NADP+; fitted to Morrison equation; read-out: Ki^app
Procedure: FIG. 3 is a graph depicting active site titration of highly purified, homogenous human 11β-HSD1. Fractional velocities (vi/v0) of cortisol dehydrogenation by 11β-HSD1 were determined in presence of increasing amounts of the selective and potent inhibitor BVT.24829. […] Total protein concentration was determined by amino acid analysis (triplicate measurements) assuming a molecular mass of 31.9 kDa for the His-tagged enzyme.
Enzyme activity measurements. The dehydrogenase activity of 11β-HSD1 was assayed at 25° C. in 50 mM Tris/Cl, pH 7.4, using 50 μM cortisol and 100 μM NADP^+, with a K2 spectrofluorimeter (ISS, Champaign, Ill.). The excitation and emission wavelengths were 340 nm and 460 nm, respectively. To ensure unambiguous initial rate measurements, the enzyme addition was adjusted to give a linear fluorescence increase for at least the first 2 min of reaction. Reaction rates were calculated before and after the addition of purified 11β-HSD1 to give enzymatic rates of NADP^+ reduction. The relationship between the increase of fluorescence and the rate of NADP^+ reduction was established by generating a calibration curve using freshly prepared solutions of NADPH (0-25 μM). […] Substrate and product were monitored by UV absorbance at 240 nm and concentrations were calculated by referral to corresponding calibration curves. […]
Target sequence in this assay (P28845 with tags, fused parts or gaps): as above

11β-HSD1 [4] = biological target: T1, 11β-HSD1; test: GuHCl-induced inactivation (conformational stability) monitored by cortisol dehydrogenation activity; type: biochemical; parameters: the first 23 amino acid residues (19 for the rat variant) of the protein, which includes the distal N-terminus and the transmembrane domain, were omitted; made in house; host or cells: E. coli BL21(DE3), pET28a derivative, co-expression of GroEL/ES; details: human enzyme, control (no addition) 0.25
Procedure: FIG. 4 is a graph depicting inactivation of recombinant human 11β-HSD1-catalyzed cortisol dehydrogenation with GuHCl. Protein concentration was approximately 5 μM in 50 mM Tris-HCl, pH 8.0. Solutions were exposed to denaturant, and protected by additives as indicated, for 16-18 h at 4° C. (∘) no additives; (□) 50 μM NADP^+; (□) BVT.24829 inhibitor and 50 μM NADP^+.
as §1
Target sequence in this assay (P28845 with tags, fused parts or gaps): as above

T2 sequence (Q6QLL4 with tags, fused parts or gaps): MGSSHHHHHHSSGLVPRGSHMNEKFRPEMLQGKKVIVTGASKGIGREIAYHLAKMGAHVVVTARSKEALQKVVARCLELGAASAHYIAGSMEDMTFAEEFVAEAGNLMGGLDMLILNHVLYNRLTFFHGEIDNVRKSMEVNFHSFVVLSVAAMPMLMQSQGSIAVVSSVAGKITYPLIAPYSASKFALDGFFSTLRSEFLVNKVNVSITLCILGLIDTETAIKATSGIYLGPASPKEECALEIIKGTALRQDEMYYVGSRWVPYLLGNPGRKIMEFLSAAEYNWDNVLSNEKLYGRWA

Row | SMILES | Ki values for 11β-HSD1 (11β-HSD1 [1]) | midpoint concentration, Cm, for GuHCl-induced inactivation (guinea pig 11β-HSD1; 25 μM inhibitor + cofactor 50 μM NADP+) | midpoint concentration, Cm, for GuHCl-induced inactivation (guinea pig 11β-HSD1; 25 μM inhibitor added) | improvement of yield of soluble human 11β-HSD1 (11β-HSD1 [2]) | Ki (11β-HSD1 [3]) | midpoint concentration, Cm, for GuHCl-induced inactivation (11β-HSD1 [4]; inhibitor + cofactor 50 μM NADP+) | midpoint concentration, Cm, for GuHCl-induced inactivation (11β-HSD1 [4]; one equivalent of inhibitor added)
1 | Cc1c(Cl)cccc1S(=O)(=O)Nc1nc(CC(=O)N2CCN(C)CC2)cs1 [BVT.2733, 3-Chloro-2-methyl-N-{4-[2-(4-methyl-1-piperazinyl)-2-oxoethyl]-1,3-thiazol-2-yl}benzenesulfonamide] | micromolar range |  |  |  |  |  | 
2 | Cc1c(Cl)cccc1S(=O)(=O)Nc1nc(CCN2CCOCC2=O)cs1 [BVT.3498, 3-chloro-2-methyl-N-{4-[2-(3-oxo-4-morpholinyl)ethyl]-1,3-thiazol-2-yl}benzenesulfonamide] | nanomolar range |  |  |  |  |  | 
3 | CCCc1ccc(S(=O)(=O)Nc2ccsc2C(=O)N(CC)CC)cc1 [BVT.4584, N,N-diethyl-(3-{[(4-propylphenyl)sulfonyl]amino}thien-2-yl)carboxamide] | micromolar range | 1.0 M and 0.98 M | 0.75 M |  |  |  | 
4 | Cc1sc(NS(=O)(=O)c2cccc(Cl)c2C)nc1CCN1CCOCC1=O [BVT.24829, 3-chloro-2-methyl-N-{5-methyl-4-[2-(3-oxo-4-morpholinyl)ethyl]-1,3-thiazol-2-yl}benzenesulfonamide] | nanomolar range |  |  | approximately 60 fold | 32 ± 1 nM | 0.7 M and 0.71 M | 0.51 M
